The experiment deals with CD8F1 mice, subcutaneous mammary adenocarcinoma, T/C%. As to the kind of experiment: NCI In Vivo Anticancer Drug Screen. Data for tumor model Mammary Adenocarcinoma CD8F1 (subcutaneous) in CD8F1. Conditions: higher = larger tumour. In outline:
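Tumor-bearing mice, transplantable model; readout survival or tumor size; value = treated (T) / vehicle control (C).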

Setting [1] is: endpoint: median tumor weight (est.), dose: 25.0 mg/kg/injection, schedule: Q07DX005 (ip), vehicle: water.
[2] abbreviates: endpoint: median tumor weight (est.), dose: 50.0 mg/kg/injection, schedule: Q07DX005 (ip), vehicle: water.
The mark [3] stands for this setting: endpoint: median tumor weight (est.), dose: 200.0 mg/kg/injection, schedule: Q07DX005 (ip), vehicle: water.
Where [4] appears, read: endpoint: median tumor weight (est.), dose: 12.5 mg/kg/injection, schedule: Q07DX005 (ip), vehicle: saline with Tween-80.
[5] abbreviates: endpoint: median tumor weight (est.), dose: 25.0 mg/kg/injection, schedule: Q07DX005 (ip), vehicle: saline with Tween-80.
Setting [6] is: endpoint: median tumor weight (est.), dose: 50.0 mg/kg/injection, schedule: Q07DX005 (ip), vehicle: saline with Tween-80.
[7] abbreviates: endpoint: median tumor weight (est.), dose: 50.0 mg/kg/injection, schedule: Q07DX005 (ip), vehicle: saline.
The mark [8] stands for this setting: endpoint: median tumor weight (est.), dose: 100.0 mg/kg/injection, schedule: Q07DX005 (ip), vehicle: saline.
[9] abbreviates: endpoint: median tumor weight (est.), dose: 200.0 mg/kg/injection, schedule: Q07DX005 (ip), vehicle: saline.

Several values for one entry are separate records, joined by “and”; a condition that tells them apart may be missing. Identical values can stand only once. Records with an inconclusive call do not appear.

This note sets out measurements from PubChem BioAssay AID220 (DTP/NCI, 2004).

For the compound `CNC(=O)OCc1c(COC(=O)NC)c(C)n(-c2ccc(OC)cc2)c1C`, the T/C was 113 % of control (endpoint: median tumor weight (est.), dose: 6.25 mg/kg/injection, schedule: Q07DX005 (ip), vehicle: Klucel (hydroxypropylcellulose) (HPC)); 90 % of control (endpoint: median tumor weight (est.), dose: 12.5 mg/kg/injection, schedule: Q07DX005 (ip), vehicle: Klucel (hydroxypropylcellulose) (HPC)); 152 % of control (endpoint: median tumor weight (est.), dose: 25.0 mg/kg/injection, schedule: Q07DX005 (ip), vehicle: Klucel (hydroxypropylcellulose) (HPC)); 23 % of control (endpoint: median tumor weight (est.), dose: 50.0 mg/kg/injection, schedule: Q07DX005 (ip), vehicle: Klucel (hydroxypropylcellulose) (HPC)); 24 % of control (endpoint: median tumor weight (est.), dose: 100.0 mg/kg/injection, schedule: Q07DX005 (ip), vehicle: Klucel (hydroxypropylcellulose) (HPC)); 109 % of control (endpoint: median tumor weight change, dose: 50.0 mg/kg/injection, schedule: Q01DX001 (ip), vehicle: Klucel (hydroxypropylcellulose) (HPC)). The T/C reads like this: (endpoint: median tumor weight change, dose: 200.0 mg/kg/injection, schedule: Q01DX001 (ip), vehicle: Klucel (hydroxypropylcellulose) (HPC)) 79 % of control; (endpoint: median tumor weight change, dose: 400.0 mg/kg/injection, schedule: Q01DX001 (ip), vehicle: Klucel (hydroxypropylcellulose) (HPC)) 52 % of control.

For the compound `O=C(O)C1CC(c2ccccc2)=NN1c1ccccc1` (stereo unspecified), the T/C (endpoint: median tumor weight (est.), dose: 12.5 mg/kg/injection, schedule: Q07DX005 (ip), vehicle: water) was 101 % of control; the T/C under setting [1] is 83 % of control; the T/C under setting [2] was 83 % of control; the T/C (endpoint: median tumor weight (est.), dose: 100.0 mg/kg/injection, schedule: Q07DX005 (ip), vehicle: water) was 78 % of control; the T/C under setting [3] was 70 % of control.

`CSc1ccc2c(c1)C(N1CCN(C)CC1)Cc1ccccc1S2` (stereo unspecified): the T/C by setting is: (endpoint: median tumor weight (est.), dose: 3.12 mg/kg/injection, schedule: Q07DX005 (ip), vehicle: saline with Tween-80) 104 % of control; (endpoint: median tumor weight (est.), dose: 6.25 mg/kg/injection, schedule: Q07DX005 (ip), vehicle: saline with Tween-80) 95 % of control; under setting [4], 63 % of control; under setting [5], 53 % of control; under setting [6], 104 % of control.

Take `NC(=O)Oc1cccc(OC(N)=O)c1`: the T/C is, setting by setting: (endpoint: mean tumor weight, dose: 50.0 mg/kg/injection, schedule: Q07DX006 (ip), vehicle: water) 161 % of control; (endpoint: mean tumor weight, dose: 100.0 mg/kg/injection, schedule: Q07DX006 (ip), vehicle: water) 56 % of control; (endpoint: mean tumor weight, dose: 200.0 mg/kg/injection, schedule: Q07DX006 (ip), vehicle: water) 73 % of control; (endpoint: mean tumor weight, dose: 400.0 mg/kg/injection, schedule: Q07DX006 (ip), vehicle: water) 93 % of control; under setting [1], 99 % of control; under setting [2], 105 % of control. For the same compound, the T/C under setting [3] is 106 % of control and the T/C (endpoint: median tumor weight (est.), dose: 400.0 mg/kg/injection, schedule: Q07DX005 (ip), vehicle: water) is 63 % of control.

Consider `O=c1[nH]c2c(ccc3cnccc32)c2c1CCC2`, for which the T/C by setting is: (endpoint: median tumor weight (est.), dose: 6.25 mg/kg/injection, schedule: Q07DX005 (ip), vehicle: saline) 119 % of control; (endpoint: median tumor weight (est.), dose: 12.5 mg/kg/injection, schedule: Q07DX005 (ip), vehicle: suspension in saline) 80 % of control; (endpoint: median tumor weight (est.), dose: 25.0 mg/kg/injection, schedule: Q07DX005 (ip), vehicle: saline) 162 % of control; (endpoint: median tumor weight (est.), dose: 25.0 mg/kg/injection, schedule: Q07DX005 (ip), vehicle: suspension in saline) 80 % of control; under setting [7], 114 % of control; (endpoint: median tumor weight (est.), dose: 50.0 mg/kg/injection, schedule: Q07DX005 (ip), vehicle: suspension in saline) 59 % of control. In addition, the T/C is 164 % of control under setting [8] and 77 % of control (endpoint: median tumor weight (est.), dose: 100.0 mg/kg/injection, schedule: Q07DX005 (ip), vehicle: suspension in saline).

`Nc1ccn(C2OC(CO)C(O)C2O)c(=O)n1` (stereo unspecified): the T/C is 84 % of control (endpoint: mean tumor weight, dose: 18.75 mg/kg/injection, schedule: Q01DX009 (ip), vehicle: saline); 101 % of control (endpoint: mean tumor weight, dose: 25.0 mg/kg/injection, schedule: Q07DX007 (ip), vehicle: saline); 39 % of control (endpoint: mean tumor weight, dose: 37.5 mg/kg/injection, schedule: Q01DX009 (ip), vehicle: saline); 89 % of control (endpoint: mean tumor weight, dose: 75.0 mg/kg/injection, schedule: Q07DX005 (ip), vehicle: saline); 98 % of control (endpoint: mean tumor weight, dose: 75.0 mg/kg/injection, schedule: Q07DX007 (ip), vehicle: saline); 89 % of control (endpoint: mean tumor weight, dose: 150.0 mg/kg/injection, schedule: Q07DX005 (ip), vehicle: saline). Further, the T/C is 100 % of control (endpoint: mean tumor weight, dose: 300.0 mg/kg/injection, schedule: Q07DX005 (ip), vehicle: saline); 31 % of control and 55 % of control (endpoint: median tumor weight (est.), dose: 75.0 mg/kg/injection, schedule: Q04DX005 (ip), vehicle: saline); 79 % of control (endpoint: median tumor weight (est.), dose: 130.0 mg/kg/injection, schedule: Q07DX005 (ip), vehicle: saline); 50 % of control and 53 % of control (endpoint: median tumor weight (est.), dose: 150.0 mg/kg/injection, schedule: Q04DX005 (ip), vehicle: saline); 22 % of control and 41 % of control (endpoint: median tumor weight (est.), dose: 150.0 mg/kg/injection, schedule: Q07DX004 (ip), vehicle: saline); 73 % of control under setting [9]. The T/C (endpoint: median tumor weight (est.), dose: 300.0 mg/kg/injection, schedule: Q07DX005 (ip), vehicle: saline) was 48 % of control; the T/C (endpoint: median tumor weight (est.), dose: 450.0 mg/kg/injection, schedule: Q07DX005 (ip), vehicle: saline) is 75 % of control; the T/C (endpoint: median tumor weight (est.), dose: 600.0 mg/kg/injection, schedule: Q07DX005 (ip), vehicle: saline with Tween-80) is 34 % of control and 45 % of control; the T/C (endpoint: median tumor weight (est.), dose: 790.0 mg/kg/injection, schedule: Q01DX001 (ip), vehicle: saline) is 74 % of control; the T/C (endpoint: median tumor weight (est.), dose: 1180.0 mg/kg/injection, schedule: Q01DX001 (ip), vehicle: saline) was 54 % of control; the T/C (endpoint: median tumor weight (est.), dose: 1200.0 mg/kg/injection, schedule: Q07DX005 (ip), vehicle: saline with Tween-80) is 6 % of control and 18 % of control. Further, the T/C by setting is: (endpoint: median tumor weight (est.), dose: 1750.0 mg/kg/injection, schedule: Q01DX001 (ip), vehicle: saline) 54 % of control; (endpoint: median tumor weight (est.), dose: 2500.0 mg/kg/injection, schedule: Q01DX001 (ip), vehicle: saline) 62 % of control; (endpoint: median tumor weight change, dose: 790.0 mg/kg/injection, schedule: Q01DX001 (ip), vehicle: water) 48 % of control; (endpoint: median tumor weight change, dose: 1180.0 mg/kg/injection, schedule: Q01DX001 (ip), vehicle: water) 77 % of control; (endpoint: median tumor weight change, dose: 1750.0 mg/kg/injection, schedule: Q01DX001 (ip), vehicle: water) 57 % of control; (endpoint: median tumor weight change, dose: 2500.0 mg/kg/injection, schedule: Q01DX001 (ip), vehicle: water) 33 % of control.

As to `Nc1cccc(=O)[nH]1`, the T/C was 21 % of control under setting [7]; 68 % of control under setting [8]; 70 % of control under setting [9]; 96 % of control and 100 % of control (endpoint: median tumor weight (est.), dose: 400.0 mg/kg/injection, schedule: Q07DX005 (ip), vehicle: saline); 47 % of control (endpoint: median tumor weight (est.), dose: 400.0 mg/kg/injection, schedule: Q07DX005 (ip), vehicle: suspension in saline); 78 % of control (endpoint: median tumor weight (est.), dose: 800.0 mg/kg/injection, schedule: Q07DX005 (ip), vehicle: saline). The T/C by setting is: (endpoint: median tumor weight (est.), dose: 800.0 mg/kg/injection, schedule: Q07DX005 (ip), vehicle: suspension in saline) 56 % of control; (endpoint: median tumor weight (est.), dose: 1600.0 mg/kg/injection, schedule: Q07DX005 (ip), vehicle: suspension in saline) 59 % of control; (endpoint: median tumor weight change, dose: 62.5 mg/kg/injection, schedule: Q01DX001 (ip), vehicle: saline) 55 % of control; (endpoint: median tumor weight change, dose: 125.0 mg/kg/injection, schedule: Q01DX001 (ip), vehicle: saline) 78 % of control; (endpoint: median tumor weight change, dose: 250.0 mg/kg/injection, schedule: Q01DX001 (ip), vehicle: saline) 90 % of control; (endpoint: median tumor weight change, dose: 500.0 mg/kg/injection, schedule: Q01DX001 (ip), vehicle: saline) 72 % of control. The T/C (endpoint: median tumor weight change, dose: 1000.0 mg/kg/injection, schedule: Q01DX001 (ip), vehicle: saline) was 70 % of control.

On to `CC(=O)Nc1ccc(C(=O)C=O)cc1`, for which the T/C by setting is: under setting [4], 114 % of control; under setting [5], 117 % of control; under setting [6], 84 % of control; (endpoint: median tumor weight (est.), dose: 100.0 mg/kg/injection, schedule: Q07DX005 (ip), vehicle: saline with Tween-80) 93 % of control; (endpoint: median tumor weight (est.), dose: 200.0 mg/kg/injection, schedule: Q07DX005 (ip), vehicle: saline with Tween-80) 80 % of control.
